Consider 16 compounds from patent US9346762B2, “Pyrazole derivatives and their use as LPAR5 antagonists” (SANOFI, priority 2012, dated 2016).

Common to all, as to type: cell-based
Assay [1] relates to human mast cell line HMC-1 (LPA receptor LPAR5). In words: FLIPR assay, intracellular Ca2+ release in human mast cell line HMC-1. Conditions: HMC1, LPA-stimulated Ca2+ release, HMC-1 cells, compound added 10 minutes prior to LPA. The text has this: (§1) B) Use of the Fluorometric Imaging Plate Reader (FLIPR) Assay for the Determination of Intracellular Ca^2+ Release in Human Mast Cell Line HMC-1 and the Murine Microglia cell line BV-2
(§2) The ability of the compounds of the formula Ito inhibit or bind the LPA receptor LPAR5 can be assessed by determining the intracellular Ca^2+ release in human or animal cells. For the analysis of activating potential of LPA and the inhibitory effects of compounds of the formula I two cell lines were used with high LPAR5 expression, the human mast cell line HMC-1 and the murine microglia cell line BV-2 (FIGS. 1 and 2). For the FLIPR assay using human mast cells in a 96-well-format, HMC-1 suspension cells from flask culture were harvested, resuspended and counted. 14×10^6 HMC-1 cells were transferred into a new 50 ml tube, centrifuged for 3 minutes at 540×g. The resulting cell pellet at the bottom of the tube was resuspended with 15 ml loading buffer (loading buffer contained HBSS buffer (pH 7.4), 0.1% BSA (bovine serum albumin), 2 μM FLUO-4 dye; HBSS buffer (pH 7.4) contained 1×HBSS, 20 mM HEPES, 0.01% Pluronic F-127, 2.5 mM Probenicid).
Cells in loading buffer were incubated for 45-60 minutes at 37° C. After incubation cells were centrifuged for 3 minutes at 540×g and resuspended with 21 ml of HBSS buffer (pH 7.4). Each well of a poly-D-lysine coated 96-well-plate was filled with 150 μl cell solution, an equivalent of 100 000 cells/well. The 96-well-plate was centifuged for 2 minutes at 100×g (without brake) prior a recovery time of 30 minutes at 37° C. After this procedure cells were stimulated with LPA (in HBSS pH 7.4 and 0.1% BSA) to determine the EC50 of LPA in HMC-1 cells. For the determination of the inhibitory effect of compounds of the formula I, test compounds were added to the cells in the 96-well-plate 10 minutes prior the addition of LPA. Results of the assay are expressed as % activation, and are calculated using maximum peak of activation (Amax). The IC50 data of the above described FLIPR assay using human mast cell line HMC-1 for exemplary compounds of the present invention are shown in Table 2. Adherent BV-2 cells were seeded onto poly-D-lysine coated 96-well-plates (100000 cells/well) the day before performing the FLIPR assay. The density of the cells in the 96-well-plate at the day of the FLIPR assay should be 90%. After aspiration of the culture media, BV-2 cells were incubated for 30 minutes at 37° C. with loading buffer and recovered in 150 μl HBSS buffer for 30 minutes at 37° C. After this procedure cells were stimulated with LPA (in HBSS pH 7.4 and 0.1% BSA) to determine the EC50 of LPA in BV-2 cells. For the determination of the inhibitory effect of compounds of the formula I, test compounds were added to the cells in the 96-well-plate 10 minutes prior the addition of LPA. The IC50 data of the above described FLIPR assay using the murine microglia cell line BV-2 for exemplary compounds of the present invention are shown in Table 3.

Assay [2] relates to washed human blood platelets (platelet LPA receptor LPAR5). Kind of assay: Aggregation assay for washed human blood platelets (LPA-induced). Conditions: reduction of maximal LPA-induced aggregation, 5 min preincubation at 37° C. On the procedure:
A) Aggregation Assay for Washed Human Blood Platelets (Thrombocytes)
Whole blood was collected from healthy volunteers using 3×20 ml syringes containing each 1/10 volume of buffered citrate. The anticoagulated whole blood was transferred into 50 ml polypropylene conical tubes (30 ml per tube). The tubes were centrifuged for 10 minutes at 150×g at room temperature without using the centrifuge brake. This procedure results in a lower phase of cellular components and a supernatant (upper phase) of platelet rich plasma (PRP). The PRP phase was collected from each tube and pooled for each donor. To avoid carry over of cellular components following first centrifugation, approximately 5 ml of PRP was left in the tube. The platelet concentration was determined using a ABX Micros 60 counter. The PRP phase was transferred to a new 50 ml tube. After 10 minutes standing at room temperature, 1 μl PGI2 (1 mM in Tris-HCl/pH 8.8) and 180 μl ACD/A were added per ml PRP. The PRP was then transferred to new 10 ml tube and centrifuged for 10 minutes at 500×g. After centrifugation a cellular pellet is visible at the bottom of the tube. The supernatant was carefully discarded and the cellular pellet, consisting of human blood platelets was then dissolved in 10 ml buffer T (buffer T composition: 145 mM NaCl, 5 mM KCl, 0.1 mM MgCl2×6 H2O, 15 mM HEPES, 5.5 mM glucose, pH 7.4). Platelet concentration in this solution was determined and buffer T was added to obtain a final concentration of 3.5×10^5 platelets per ml.
After 10 minutes at room temperature, 1 μl PGI2 per ml platelet solution was added and distributed into new 10 ml tubes. After a centrifugation step, 10 minutes at 500×g, supernatant was discarded and the platelets were resuspended in buffer T to a final concentration of 3.5×10^5 platelets per ml buffer T. Before use, platelet-containing buffer equilibrated for 30 minutes at room temperature. The human platelet aggregation assay was performed in single use cuvettes using the Platelet Aggregation Profiler® (PAP-4 or -8E, BIO/DATA Corporation). For a single experiment, 320 μl of platelet solution were transferred into an assay cuvette, 20 μl of calcium citrate solution (10 mM in H2O) and 20 μl of fibrinogen solution (20 mg/ml H2O) were added. The aggregation assay was performed in the assay cuvette at 37° C. and with 1.200 rpm stirring. To determine the EC50, eight assay cuvettes were loaded as described above with different concentrations of LPA. Aggregation was measured over 6 minutes at 37° C. with 1200 rpm (revolutions per minute) stirring. Results of the assay are expressed as % activation, and are calculated using maximum aggregation (Tmax) or area under curve (AUC) of the absorbance over 6 minutes. The inhibitory effect (IC50) of the test compounds was determined as the reduction of the maximal aggregation. Test compound was added prior starting the experiment with an incubation time of the test compound of 5 minutes at 37° C. with 1200 rpm stirring. The IC50 data of the above described platelet aggregation assay using human washed platelets for exemplary compounds of the present invention are shown in Table 1.

The test system of assay [3] is murine microglia cell line BV-2 (LPA receptor LPAR5). In words: FLIPR assay, intracellular Ca2+ release in murine microglia cell line BV-2. The note with it: Mus musculus; LPA-stimulated Ca2+ release, BV-2 cells, compound added 10 minutes prior to LPA.
Description: as §1, §2
Cells in loading buffer were incubated for 45-60 minutes at 37° C. […] Results of the assay are expressed as % activation, and are calculated using maximum peak of activation (Amax). […]

The compound `Cc1c(COC(C)C(=O)Nc2ccc(C(=O)O)cc2)nn(-c2ccc(Cl)cc2Cl)c1-c1ccc(C(F)(F)F)cc1` (stereo not shown) [Example 16, 4-{2-[1-(2,4-Dichloro-phenyl)-4-methyl-5-(4-trifluoromethyl-phenyl)-1H-pyrazol-3-ylmethoxy]-propionylamino}-benzoic acid] gave a half-maximal inhibitory concentration (IC50) in assay [1] of 4.1 µM.
With `Cc1c(COC(C(=O)Nc2ccc(C(=O)O)cc2)C(C)C)nn(-c2ccc(Cl)cc2Cl)c1-c1ccc(Cl)cc1` (stereo not shown) [Example 17, 4-{2-[5-(4-Chloro-phenyl)-1-(2,4-dichloro-phenyl)-4-methyl-1H-pyrazol-3-ylmethoxy]-3-methyl-butyrylamino}-benzoic acid], the concentration for half-maximal inhibition (IC50) stood at 15.9 µM in assay [2] and 4.2 µM in assay [1].
Turning to `Cc1c(COC(C)(C)C(=O)NCc2ccc(C(=O)O)cc2)nn(-c2ccccc2Cl)c1-c1ccc(C(F)(F)F)cc1` [Example 13, 4-({2-[1-(2-Chloro-phenyl)-4-methyl-5-(4-trifluoromethyl-phenyl)-1H-pyrazol-3-ylmethoxy]-2-methyl-propionylamino}-methyl)-benzoic acid], the IC50 in assay [1] is 1.3 µM.
Same read-out and setting: as for `Cc1c(COC(C)C(=O)Nc2ccc(C(=O)O)cc2)nn(-c2ccc(Cl)cc2)c1-c1ccc(C(F)(F)F)cc1` (stereo not shown) [Example 18, 4-{2-[1-(4-Chloro-phenyl)-4-methyl-5-(4-trifluoromethyl-phenyl)-1H-pyrazol-3-ylmethoxy]-propionylamino}-benzoic acid], the figure is 3.8 µM; as for `Cc1c(COCC(=O)NCc2ccc(C(=O)O)cc2)nn(-c2ccc(Cl)cc2Cl)c1-c1ccc(Cl)cc1` [Example 11, 4-({2-[5-(4-Chloro-phenyl)-1-(2,4-dichloro-phenyl)-4-methyl-1H-pyrazol-3-ylmethoxy]-acetylamino}-methyl)-benzoic acid], 8.6 µM.
On the same count and under the same terms, as for `Cc1c(COC2(C(=O)O)CCCC2)nn(-c2ccc(Cl)cc2Cl)c1-c1ccc(Cl)cc1` [Example 3, 1-[5-(4-Chloro-phenyl)-1-(2,4-dichloro-phenyl)-4-methyl-1H-pyrazol-3-ylmethoxy]-cyclopentanecarboxylic acid], the figure is 8.8 µM.
With `Cc1c(COC(C)(C)C(=O)NCc2ccc(C(=O)O)cc2)nn(-c2ccc(Cl)cc2Cl)c1-c1ccc(C(F)(F)F)cc1` [Example 10, 4-({2-[1-(2,4-Dichloro-phenyl)-4-methyl-5-(4-trifluoromethyl-phenyl)-1H-pyrazol-3-ylmethoxy]-2-methyl-propionylamino}-methyl)-benzoic acid], the results for the half-inhibitory concentration (IC50) in assay [1] and in assay [3] were 0.03 µM and 0.2 µM, respectively.
Regarding `Cc1c(COC(C)C(=O)O)nn(-c2ccc(Cl)cc2Cl)c1-c1ccc(Cl)cc1` (stereo not shown) [Example 8, 2-[5-(4-Chloro-phenyl)-1-(2,4-dichloro-phenyl)-4-methyl-1H-pyrazol-3-ylmethoxy]-propionic acid], the figures for the IC50 in assay [2] and in assay [1] were 4.1 µM and 6.3 µM, respectively.
With `Cc1c(COC(C)C(=O)Nc2ccc(C(=O)O)cc2)nn(-c2ccccc2Cl)c1-c1ccc(C(F)(F)F)cc1` (stereo not shown) [Example 20, 4-{2-[1-(2-Chloro-phenyl)-4-methyl-5-(4-trifluoromethyl-phenyl)-1H-pyrazol-3-ylmethoxy]-propionylamino}-benzoic acid], in assay [1], the midpoint of inhibition, the IC50, lay at 5.2 µM. This counts as single-digit micromolar.
`CC(OCc1cn(-c2ccccc2)nc1-c1ccccc1)C(=O)Nc1ccc(C(=O)O)cc1` (stereo not shown) [Example 22, 4-[2-(1,3-Diphenyl-1H-pyrazol-4-ylmethoxy)-propionylamino]-benzoic acid] returned an IC50 in assay [1] of 16 µM.
On to `Cc1c(COC(C)(C)C(=O)NCc2ccc(C(=O)O)cc2)nn(-c2ccc(Cl)cc2)c1-c1ccc(C(F)(F)F)cc1` [Example 14, 4-({2-[1-(4-Chloro-phenyl)-4-methyl-5-(4-trifluoromethyl-phenyl)-1H-pyrazol-3-ylmethoxy]-2-methyl-propionylamino}-methyl)-benzoic acid], for which the concentration for half-maximal inhibition (IC50) in assay [1] was found to be 3.4 µM. Against the preceding compound, the IC50 is about 4.7-fold lower.
Regarding `CCC(OCc1nn(-c2ccc(Cl)cc2Cl)c(-c2ccc(Cl)cc2)c1C)C(=O)O` (stereo not shown) [Example 7, 2-[5-(4-Chloro-phenyl)-1-(2,4-dichloro-phenyl)-4-methyl-1H-pyrazol-3-ylmethoxy]-butyric acid], the half-inhibitory concentration (IC50) in assay [2] was found to be 4.7 µM; in assay [1], 11.4 µM.
`Cc1c(COC(C)(C)C(=O)O)nn(-c2ccc(Cl)cc2Cl)c1-c1ccc(C(F)(F)F)cc1` [Example 4, 2-[1-(2,4-Dichloro-phenyl)-4-methyl-5-(4-trifluoromethyl-phenyl)-1H-pyrazol-3-ylmethoxy]-2-methyl-propionic acid]: 6.6 µM corresponded to half-maximal inhibition in assay [1] (IC50).
Turning to `CCC(OCc1nn(-c2ccc(Cl)cc2Cl)c(-c2ccc(Cl)cc2)c1C)C(=O)NCc1ccc(C(=O)O)cc1` (stereo not shown) [Example 12, 4-({2-[5-(4-Chloro-phenyl)-1-(2,4-dichloro-phenyl)-4-methyl-1H-pyrazol-3-ylmethoxy]-butyrylamino}-methyl)-benzoic acid], the IC50 in assay [2] is 4.3 µM; in assay [1] it was 6.3 µM.
On the same counts, the results for `Cc1c(COC(C)C(=O)NCc2ccc(C(=O)O)cc2)nn(-c2ccc(Cl)cc2Cl)c1-c1ccc(Cl)cc1` (stereo not shown) [Example 15, 4-({2-[5-(4-Chloro-phenyl)-1-(2,4-dichloro-phenyl)-4-methyl-1H-pyrazol-3-ylmethoxy]-propionylamino}-methyl)-benzoic acid] are 6.5 µM and 8.8 µM.
The compound `Cc1c(COC(C)(C)C(=O)O)nn(-c2ccc(Cl)cc2Cl)c1-c1ccc(Cl)cc1` [Example 1, 2-[5-(4-Chloro-phenyl)-1-(2,4-dichloro-phenyl)-4-methyl-1H-pyrazol-3-ylmethoxy]-2-methyl-propionic acid] had an IC50 in assay [1] of 8.3 µM.
